Test results from PubChem BioAssay AID1963858 (Molecular Pharmacology Branch, DTP, NCI, 2024).

Test system: HOP-62 multicell spheroids with HUVEC/MSC, viability
Experiment: Anticancer human tumor HOP-62 cell line growth inhibition [KRAS2];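 further: viability read after a week of compound exposure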;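 on viability, T/C: 100% = DMSO vehicle-treated spheroids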
Details: for viability, T/C: stronger effect = lower value
How it was run: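 Combination screen of spheroid viability in tumor-cell co-cultures with endothelial (HUVEC) and mesenchymal stem cell stroma. Each agent was tested in half-log dilutions, topping at clinical Cmax or at 10 microM without a known Cmax.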

[1] = curve of first compound, second compound 0.1 µM
[2] = curve of first compound, second compound 0.316 µM
[3] = curve of first compound, second compound 1 µM
[4] = curve of first compound, second compound 3.16 µM
[5] = curve of first compound, second compound 10 µM
[6] = second compound 0.1 µM, first compound 0.000316 µM
[7] = second compound 0.1 µM, first compound 0.001 µM
[8] = second compound 0.1 µM, first compound 0.00316 µM
[9] = second compound 0.1 µM, first compound 0.01 µM
[10] = second compound 0.1 µM, first compound 0.0316 µM
[11] = second compound 0.1 µM, first compound 0.1 µM
[12] = second compound 0.316 µM, first compound 0.000316 µM
[13] = second compound 0.316 µM, first compound 0.001 µM
[14] = second compound 0.316 µM, first compound 0.00316 µM
[15] = second compound 0.316 µM, first compound 0.01 µM
[16] = second compound 0.316 µM, first compound 0.0316 µM
[17] = second compound 0.316 µM, first compound 0.1 µM
[18] = second compound 1 µM, first compound 0.000316 µM
[19] = second compound 1 µM, first compound 0.001 µM
[20] = second compound 1 µM, first compound 0.00316 µM
[21] = second compound 1 µM, first compound 0.01 µM
[22] = second compound 1 µM, first compound 0.0316 µM
[23] = second compound 1 µM, first compound 0.1 µM
[24] = second compound 3.16 µM, first compound 0.000316 µM
[25] = second compound 3.16 µM, first compound 0.001 µM
[26] = second compound 3.16 µM, first compound 0.00316 µM
[27] = second compound 3.16 µM, first compound 0.01 µM
[28] = second compound 3.16 µM, first compound 0.0316 µM
[29] = second compound 3.16 µM, first compound 0.1 µM
[30] = second compound 10 µM, first compound 0.000316 µM
[31] = second compound 10 µM, first compound 0.001 µM
[32] = second compound 10 µM, first compound 0.00316 µM
[33] = second compound 10 µM, first compound 0.01 µM
[34] = second compound 10 µM, first compound 0.0316 µM
[35] = second compound 10 µM, first compound 0.1 µM
[36] = second compound 0.1 µM, first compound 0.316 µM
[37] = second compound 0.1 µM, first compound 1 µM
[38] = second compound 0.1 µM, first compound 3.16 µM
[39] = second compound 0.316 µM, first compound 0.316 µM
[40] = second compound 0.316 µM, first compound 1 µM
[41] = second compound 0.316 µM, first compound 3.16 µM
[42] = second compound 1 µM, first compound 0.316 µM
[43] = second compound 1 µM, first compound 1 µM
[44] = second compound 1 µM, first compound 3.16 µM
[45] = second compound 3.16 µM, first compound 0.316 µM
[46] = second compound 3.16 µM, first compound 1 µM
[47] = second compound 3.16 µM, first compound 3.16 µM
[48] = second compound 10 µM, first compound 0.316 µM
[49] = second compound 10 µM, first compound 1 µM
[50] = second compound 10 µM, first compound 3.16 µM

Structure (SMILES) | IC50 [1] | IC50 [2] | IC50 [3] | IC50 [4] | IC50 [5] | viability, T/C [9] | viability, T/C [10] | viability, T/C [11] | viability, T/C [15] | viability, T/C [16] | viability, T/C [17] | viability, T/C [21] | viability, T/C [22] | viability, T/C [23] | viability, T/C [27] | viability, T/C [28] | viability, T/C [29] | viability, T/C [33] | viability, T/C [34] | viability, T/C [35] | also measured
CN(C)C/C=C/C(=O)Nc1cc2c(Nc3ccc(F)c(Cl)c3)ncnc2cc1O[C@H]1CCOC1 + C=CC(=O)N1CCN(c2nc(=O)n(-c3c(C)ccnc3C(C)C)c3nc(-c4c(O)cccc4F)c(F)cc23)C(C)C1 | > 100 nM | > 100 nM | > 100 nM | > 100 nM | 19.2 nM | 58.9% | 54.4% | 65.7% | 65% | 51.1% | 58% | 69.8% | 61.1% | 62.4% | 71.8% | 63.4% | 54% | 52% | 48.6% | 42.3% | viability, T/C [6]: 65.1%; viability, T/C [7]: 69.1%; viability, T/C [8]: 67.8%; viability, T/C [12]: 79.5%; viability, T/C [13]: 69.9%; viability, T/C [14]: 66%; viability, T/C [18]: 81.1%; viability, T/C [19]: 80.5%; viability, T/C [20]: 61.9%; viability, T/C [24]: 71.5%; viability, T/C [25]: 65.1%; viability, T/C [26]: 70.9%; viability, T/C [30]: 56.9%; viability, T/C [31]: 51.1%; viability, T/C [32]: 54.5%
Cn1ncnc1[C@H]1c2n[nH]c(=O)c3cc(F)cc(c23)N[C@@H]1c1ccc(F)cc1 + CC1OCC2(CCN(c3cnc(Sc4ccnc(N)c4Cl)c(N)n3)CC2)C1N | > 100 nM | > 100 nM | 1.39 nM | < 0.316 nM | < 0.316 nM | 87.1% | 80.2% | 73% | 69.3% | 72.5% | 52.6% | 31.4% | 32.7% | 37.9% | 23.7% | 17.5% | 22.5% | 27.5% | 24.1% | 21.1% | viability, T/C [6]: 88.7%; viability, T/C [7]: 97.9%; viability, T/C [8]: 94.1%; viability, T/C [12]: 86.5%; viability, T/C [13]: 66.8%; viability, T/C [14]: 62.7%; viability, T/C [18]: 65.2%; viability, T/C [19]: 56.9%; viability, T/C [20]: 29.8%; viability, T/C [24]: 40.6%; viability, T/C [25]: 31.7%; viability, T/C [26]: 37%; viability, T/C [30]: 36.9%; viability, T/C [31]: 30.3%; viability, T/C [32]: 31%
COC(=O)c1ccc2c(C(=Nc3ccc(N(C)C(=O)CN4CCN(C)CC4)cc3)c3ccccc3)c(O)[nH]c2c1 + C=CC(=O)N1CCN(c2nc(=O)n(-c3c(C)ccnc3C(C)C)c3nc(-c4c(O)cccc4F)c(F)cc23)C(C)C1 | < 31.6 nM | < 31.6 nM | < 31.6 nM | < 31.6 nM | < 31.6 nM |  | 40.2% | 30.1% |  | 36.4% | 29.9% |  | 37.2% | 32.5% |  | 40.5% | 31.5% |  | 47% | 36.2% | viability, T/C [36]: 25.5%; viability, T/C [37]: 23.3%; viability, T/C [38]: 24.8%; viability, T/C (second compound 0.1 µM, first compound 10 µM): 13%; viability, T/C [39]: 26.8%; viability, T/C [40]: 25.7%; viability, T/C [41]: 21.7%; viability, T/C (second compound 0.316 µM, first compound 10 µM): 14.3%; viability, T/C [42]: 26.1%; viability, T/C [43]: 26.9%; viability, T/C [44]: 26.7%; viability, T/C (second compound 1 µM, first compound 10 µM): 2.61%; viability, T/C [45]: 29.9%; viability, T/C [46]: 27.5%; viability, T/C [47]: 22.7%; viability, T/C (second compound 3.16 µM, first compound 10 µM): 2.66%; viability, T/C [48]: 55.4%; viability, T/C [49]: 30.9%; viability, T/C [50]: 10.2%; viability, T/C (second compound 10 µM, first compound 10 µM): 1.93%
C=CC(=O)N1CCN(c2nc(OCC3CCCN3C)nc3c2CCN(c2cccc4cccc(C)c24)C3)CC1CC#N (configuration not stated) |  |  |  |  |  |  |  |  |  |  |  |  |  |  |  |  |  |  |  |  | viability, T/C (compound 1 µM): 35.5% [middle of 17 runs]; IC50 (compound alone, run of 07/26/2021): 622 nM [middle of 6 runs]
CC(=O)OC12COC1CC(O)C1(C)C(=O)C(O)C3=C(C)C(OC(=O)C(O)C(NC(=O)OC(C)(C)C)c4ccccc4)CC(O)(C(OC(=O)c4ccccc4)C21)C3(C)C (configuration not stated) + CC1OCC2(CCN(c3cnc(Sc4ccnc(N)c4Cl)c(N)n3)CC2)C1N | < 10 nM | < 10 nM | < 10 nM | < 10 nM | < 10 nM | 35.9% | 34.9% | 35.6% | 31.2% | 33% | 31.2% | 37.5% | 33.8% | 32.7% | 25.5% | 22.3% | 39.3% | 23% | 18.8% | 35.4% | viability, T/C [36]: 37.6%; viability, T/C [37]: 38.2%; viability, T/C [38]: 40.1%; viability, T/C [39]: 29.8%; viability, T/C [40]: 33.1%; viability, T/C [41]: 36.4%; viability, T/C [42]: 34.5%; viability, T/C [43]: 34.8%; viability, T/C [44]: 45%; viability, T/C [45]: 25.5%; viability, T/C [46]: 25.6%; viability, T/C [47]: 26.9%; viability, T/C [48]: 23.5%; viability, T/C [49]: 25.7%; viability, T/C [50]: 29.4%
